The values that follow come from ChEMBL document CHEMBL4304766, “DMSO-Perturbing Assay for Identifying Promiscuous Enzyme Inhibitors” (ACS Med Chem Lett, 2019).

Activity calls are given as the source filed them. The rule behind the calls is not given here. A value given as a limit tells only on which side of the number the result lay.

For assay [1], the target named is T1, Chymotrypsinogen A (Bos taurus, UniProt P00766). Kind of assay: (§1) Inhibition of alpha-chymotrypsin in bovine pancreas using SPpNA as substrate pretreated with enzyme for 30 mins followed by substrate addition and measured for 12 mins by spectrophotometric analysis.
Assay [2] concerns the target T2, Beta-lactamase (Enterobacter cloacae, UniProt P05364). Kind of assay: Inhibition of Enterobacter cloacae beta-lactamase incubated for 10 mins followed by nitrocefin substrate challenge and measured for 5 mins by spectrophotometric analysis.
In assay [3] the target is T1, Chymotrypsinogen A. Put plainly: Inhibition of alpha-chymotrypsin in bovine pancreas using SPpNA as substrate pretreated with enzyme for 30 mins followed by substrate addition and measured for 12 mins in presence of Triton X-100 by spectrophotometric analysis.
Assay [4] addresses Chymotrypsinogen A (Bos taurus) (UniProt P00766). Put plainly: Inhibition of bovine pancreas alpha-chymotrypsin at concentration of 6 uM using SPpNA as substrate treated with enzyme for 30 mins following enzyme incubation with 0.7 to 2.1 M DMSO for 5 mins followed by substrate addition and measured for 12 mins by DMSO-perturbation assay.
Assay [5] concerns Bacillus cereus. Put plainly: Inhibition of Bacillus cereus 569/H9 beta-lactamase incubated for 10 mins followed by nitrocefin substrate challenge and measured for 5 mins by spectrophotometric analysis.
The target of assay [6] is Chymotrypsinogen A (Bos taurus) (UniProt P00766). The description is as §1.
In assay [7] the test system is Bacillus cereus. Put plainly: Inhibition of Bacillus cereus 569/H9 beta-lactamase treated with enzyme for 10 mins following enzyme incubation with 0.7 to 2.1 M DMSO for 5 mins followed by nitrocefin substrate challenge and measured for 5 mins by DMSO-perturbation assay.
In assay [8] the target is T2, Beta-lactamase. Kind of assay: Inhibition of Enterobacter cloacae beta-lactamase incubated for 10 mins followed by nitrocefin substrate challenge and measured for 5 mins in presence of Triton X-100 by spectrophotometric analysis.
The target in assay [9] is Beta-lactamase (Enterobacter cloacae) (UniProt P05364). Put plainly: (§2) Inhibition of Enterobacter cloacae beta-lactamase incubated for 10 mins followed by nitrocefin substrate challenge and measured for 5 mins in presence of 1 mM DTT by spectrophotometric analysis.
Beta-lactamase (Enterobacter cloacae), sequence (P05364 21-381 limits assumed): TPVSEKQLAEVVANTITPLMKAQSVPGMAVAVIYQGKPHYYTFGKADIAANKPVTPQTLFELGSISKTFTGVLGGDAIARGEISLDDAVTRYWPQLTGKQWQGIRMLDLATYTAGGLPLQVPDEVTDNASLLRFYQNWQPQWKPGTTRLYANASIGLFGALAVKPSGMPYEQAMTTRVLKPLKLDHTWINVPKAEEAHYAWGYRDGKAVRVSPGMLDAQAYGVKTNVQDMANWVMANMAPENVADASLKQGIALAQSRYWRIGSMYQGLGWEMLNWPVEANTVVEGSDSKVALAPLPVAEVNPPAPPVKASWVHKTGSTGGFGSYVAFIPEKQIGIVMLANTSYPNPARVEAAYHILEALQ
The target of assay [10] is Chymotrypsinogen A (Bos taurus) (UniProt P00766). Kind of assay: Inhibition of alpha-chymotrypsin in bovine pancreas at 300 uM using SPpNA as substrate pretreated with enzyme for 30 mins followed by substrate addition and measured for 12 mins by spectrophotometric analysis relative to control.
Assay [11] is described as follows: Drug metabolism in DMSO-d6/potassium phosphate buffer assessed as drug recovery with small amount of metabolite formation by 1H-NMR analysis.
Assay [12] deals with Chymotrypsinogen A (Bos taurus) (UniProt P00766). Put plainly: Inhibition of bovine pancreas alpha-chymotrypsin at concentration of 6 nM using SAAPPpNA as substrate treated with enzyme for 30 mins following enzyme incubation with 0.7 to 2.1 M DMSO for 5 mins followed by substrate addition and measured for 12 mins by DMSO-perturbation assay.
Assay [13] addresses T2, Beta-lactamase. Described as §2.
In assay [14] the target is Beta-lactamase (Enterobacter cloacae) (UniProt P05364). Put plainly: Inhibition of Enterobacter cloacae beta-lactamase at 200 uM incubated for 10 mins followed by nitrocefin substrate challenge and measured for 5 mins in presence of 1 mM DTT by spectrophotometric analysis relative to control.
The target is the same in assay [15]. Kind of assay: Inhibition of Enterobacter cloacae beta-lactamase at 500 uM incubated for 10 mins followed by nitrocefin substrate challenge and measured for 5 mins by spectrophotometric analysis relative to control.

T2 sequence (P05364 whole entry): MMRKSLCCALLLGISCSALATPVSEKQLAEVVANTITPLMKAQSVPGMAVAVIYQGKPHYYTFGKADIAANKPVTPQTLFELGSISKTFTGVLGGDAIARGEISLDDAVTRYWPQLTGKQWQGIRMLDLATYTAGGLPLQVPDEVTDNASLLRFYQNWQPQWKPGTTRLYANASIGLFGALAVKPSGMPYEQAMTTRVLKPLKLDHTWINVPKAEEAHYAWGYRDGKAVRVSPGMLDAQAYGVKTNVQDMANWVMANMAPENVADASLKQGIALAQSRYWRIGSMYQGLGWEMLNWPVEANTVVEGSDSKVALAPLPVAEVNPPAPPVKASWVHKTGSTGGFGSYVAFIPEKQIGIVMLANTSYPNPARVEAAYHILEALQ

Regarding `O=c1cc(-c2ccc(O)c(O)c2)oc2ccccc12`, the figures for the IC50 on Chymotrypsinogen A [1] (read-out: IC50), on Beta-lactamase [2] and on Chymotrypsinogen A [3] were 226 µM, “Nd(Insoluble)” and 270 µM, respectively.

For the molecule `CC(C)C[C@@H](N)C(=O)N[C@@H](Cc1ccccc1)C(=O)NCc1ccc(F)cc1`, the inhibition result in [4] was “Active”.

Turning to `CC1(C)[C@@H](O[C@H]2O[C@H](C(=O)O)[C@@H](O)[C@H](O)[C@H]2O[C@@H]2O[C@H](C(=O)O)[C@@H](O)[C@H](O)[C@H]2O)CC[C@]2(C)[C@H]3C(=O)C=C4[C@@H]5C[C@@](C)(C(=O)O)CC[C@]5(C)CC[C@@]4(C)[C@]3(C)CC[C@@H]12`, the inhibition entry in the assay on Bacillus cereus [5] was “inactive”.

Consider `CCCCCCCCCCCCCCCC(=O)OC[C@H](O)[C@H]1OC(=O)C(O)=C1O`, for which the inhibition result (in assay [6]; in the assay on Bacillus cereus [5]) was “inactive” each time.

With `COc1ccc2c(c1)c(CC(=O)O)c(C)n2C(=O)c1ccc(Cl)cc1`, the inhibition result (in assay [6]; in the assay on Bacillus cereus [5]) was “inactive” each time.

With `O=C(O)[C@H]1/C(=C/CO)O[C@@H]2CC(=O)N21`, the inhibition entry with Bacillus cereus [7] is “Active”.

On to `O=C(O)[C@H]1O[C@@H](Oc2cc3oc(-c4ccccc4)cc(=O)c3c(O)c2O)[C@H](O)[C@@H](O)[C@@H]1O`, for which, in the assay with Bacillus cereus [5], the inhibition result was “inactive”.

With `O=C(O)c1cc(=O)c2c(OCC(O)COc3cccc4oc(C(=O)O)cc(=O)c34)cccc2o1`, the inhibition entry (in assay [6]; in the assay on Bacillus cereus [5]) was “inactive” each time.

Regarding `O=C(O[C@@H]1Cc2c(O)cc(O)cc2O[C@@H]1c1cc(O)c(O)c(O)c1)c1cc(O)c(O)c(O)c1`, in the assay on Bacillus cereus [5], the inhibition entry is “inactive”.

On to `Oc1cc(O)c2c(c1)O[C@H](c1ccc(O)c(O)c1)[C@H](O)C2`, for which the inhibition result with Bacillus cereus [5] was “inactive”.

Take `CC1(C)S[C@@H]2[C@H](NC(=O)Cc3ccccc3)C(=O)N2[C@H]1C(=O)O` [PENICILLIN G SODIUM]: the IC50 was determined as 7.2 µM at Beta-lactamase [2] (read-out: IC50) and 3.6 µM at Beta-lactamase [8].

With `O=C(CCc1ccc(O)cc1)c1c(O)cc(O)cc1O` [PHLORETIN], the IC50 on Chymotrypsinogen A [1] (read-out: IC50) is greater than 300 µM; on Beta-lactamase [2] (read-out: IC50) it was 496 µM. The inhibition entry in [9] was “Active”. For the same molecule, the inhibition in assay [10] is 9.9%.

On to `O=c1c(O)c(-c2ccc(O)c(O)c2)oc2cc(O)cc(O)c12` [QUERCETIN], for which the results for the IC50 at Beta-lactamase [2] (read-out: IC50), at Beta-lactamase [8] and on Beta-lactamase [13] were 85 µM, greater than 500 µM and 224 µM, respectively. Moreover, the Drug metabolism result in [11] is “Metabolite detected”. For the same molecule, the inhibition entry in assay [12] and in assay [4] was “Active” in each case.

As to `CC(=O)c1c(O)c(C)c(O)c(Cc2c(O)c3c(c(C(=O)/C=C/c4ccccc4)c2O)OC(C)(C)C=C3)c1O` [ROTTLERIN], the inhibition in [14] is less than 50%. Besides, the IC50 entry on Chymotrypsinogen A [1] was “Nd(Insoluble)”; at Beta-lactamase [2] (read-out: IC50) it was 96 µM; on Beta-lactamase [8] it was 142 µM. The Drug metabolism entry in [11] was “Metabolite detected”.

Consider `C[C@@H]1O[C@@H](OC[C@H]2O[C@@H](Oc3c(-c4ccc(O)c(O)c4)oc4cc(O)cc(O)c4c3=O)[C@H](O)[C@@H](O)[C@@H]2O)[C@H](O)[C@H](O)[C@H]1O` [RUTIN], for which the results for the half-maximal inhibitory concentration (IC50) on Chymotrypsinogen A [1] (read-out: IC50), on Beta-lactamase [2] (read-out: IC50) and on Chymotrypsinogen A [3] were 296 µM, greater than 500 µM and 281 µM, respectively. In [15], this molecule came in with an inhibition of 15%. Further, the inhibition result in assay [4] was “Active”.
